Measured values from ChEMBL document CHEMBL1201862, “PubChem BioAssay data set” (2004).
“And” between values parts separate entries of the source, which are not always exact repeats. Equal values may be shown once.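 Method: 48-hour compound exposure of cells in 96-well plates, five concentrations, linear interpolation of endpoints. Abbreviation: GI50, concentration required for 50% inhibition of growth.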 The source made the active and inactive calls. Cut-off read from the data, not from the text of the source: active = GI50 up to about 1.1 µM and inactive = higher.

Key:
Assay in all cases: NCI anticancer screen, dose series, 48 h
T47D = tested on: T47D
KM12 = tested on: KM12
SF-539 = tested on: SF-539
MOLT-4 = tested on: MOLT-4
OVCAR-8 = tested on: OVCAR-8
A549 = tested on: A549
HL-60 = tested on: HL-60
MDA-MB-231 = tested on: MDA-MB-231
SK-MEL-2 = tested on: SK-MEL-2
DU-145 = tested on: DU-145
LOX IMVI = tested on: LOX IMVI
SF-295 = tested on: SF-295
NCI/ADR-RES = tested on: NCI/ADR-RES
HT-29 = tested on: HT-29
ACHN = tested on: ACHN
OVCAR-5 = tested on: OVCAR-5
SR = tested on: SR
HCT-116 = tested on: HCT-116
CCRF-CEM = tested on: CCRF-CEM
SF-268 = tested on: SF-268
UACC-62 = tested on: UACC-62
MCF7 = tested on: MCF7
HOP-92 = tested on: HOP-92
UACC-257 = tested on: UACC-257
M14 = tested on: M14
HOP-62 = tested on: HOP-62
SK-MEL-28 = tested on: SK-MEL-28
IGROV-1 = tested on: IGROV-1
SK-OV-3 = tested on: SK-OV-3
TK-10 = tested on: TK-10
SK-MEL-5 = tested on: SK-MEL-5
Malme-3M = tested on: Malme-3M
K562 = tested on: K562
RPMI-8226 = tested on: RPMI-8226
HCC 2998 = tested on: HCC 2998
SW-620 = tested on: SW-620
NCI-H23 = tested on: NCI-H23
EKVX = tested on: EKVX
MDA-MB-435 = tested on: MDA-MB-435
SNB-75 = tested on: SNB-75
RXF 393 = tested on: RXF 393
SNB-19 = tested on: SNB-19
NCI-H226 = tested on: NCI-H226
NCI-H460 = tested on: NCI-H460
COLO 205 = tested on: COLO 205
OVCAR-4 = tested on: OVCAR-4
A498 = tested on: A498
UO-31 = tested on: UO-31
Hs-578T = tested on: Hs-578T
U-251 = tested on: U-251
786-0 = tested on: 786-0
PC-3 = tested on: PC-3
HCT-15 = tested on: HCT-15
OVCAR-3 = tested on: OVCAR-3
NCI-H522 = tested on: NCI-H522
SN12C = tested on: SN12C
MDA-N = tested on: MDA-N
CAKI-1 = tested on: CAKI-1

NC(CN(O)N=O)C(=O)O (stereo not given) [LALANOSINE]
GI50 (T47D): 87.9 µM (inactive)
GI50 (KM12): 304 nM (active) and 360 nM (active)
GI50 (SF-539): 8.63 µM (inactive)
GI50 (MOLT-4): 40 µM (inactive) and 29.2 µM (inactive)
GI50 (OVCAR-8): 12.5 µM (inactive) and 23.8 µM (inactive)
GI50 (A549): 268 nM (active) and 204 nM (active)
GI50 (HL-60): 11.4 µM (inactive)
GI50 (MDA-MB-231): 87.9 µM (inactive)
GI50 (SK-MEL-2): > 100 µM (inactive) and 70 µM (inactive)
GI50 (DU-145): > 100 µM (inactive)
GI50 (LOX IMVI): 412 nM (active) and 333 nM (active)
GI50 (SF-295): 8.36 µM (inactive) and 8.63 µM (inactive)
GI50 (NCI/ADR-RES): 18.7 µM (inactive)
GI50 (HT-29): 10.1 µM (inactive) and 17.7 µM (inactive)
GI50 (ACHN): 1.42 µM (inactive) and 1.82 µM (inactive)
GI50 (OVCAR-5): 3.73 µM (inactive) and 4.13 µM (inactive)

CN1c2ccccc2C(=O)NC12CCNCC2
GI50 (T47D): > 100 µM (inactive)
GI50 (SR): > 100 µM (inactive)
GI50 (HCT-116): > 100 µM (inactive)
GI50 (CCRF-CEM): > 100 µM (inactive)
GI50 (KM12): > 100 µM (inactive)
GI50 (SF-268): > 100 µM (inactive)
GI50 (UACC-62): > 100 µM (inactive)
GI50 (SF-539): > 100 µM (inactive)
GI50 (MCF7): > 100 µM (inactive)
GI50 (HOP-92): > 100 µM (inactive)
GI50 (UACC-257): > 100 µM (inactive)
GI50 (MOLT-4): > 100 µM (inactive)
GI50 (M14): > 100 µM (inactive)
GI50 (HOP-62): > 100 µM (inactive)
GI50 (SK-MEL-28): > 100 µM (inactive)
GI50 (IGROV-1): > 100 µM (inactive)
GI50 (OVCAR-8): > 100 µM (inactive)
GI50 (SK-OV-3): > 100 µM (inactive)
GI50 (TK-10): > 100 µM (inactive)
GI50 (SK-MEL-5): > 100 µM (inactive)
GI50 (Malme-3M): > 100 µM (inactive)
GI50 (A549): > 100 µM (inactive)
GI50 (HL-60): > 100 µM (inactive)
GI50 (K562): > 100 µM (inactive)
GI50 (DU-145): > 100 µM (inactive)
GI50 (RPMI-8226): > 100 µM (inactive)
GI50 (LOX IMVI): > 100 µM (inactive)
GI50 (HCC 2998): > 100 µM (inactive)
GI50 (SW-620): > 100 µM (inactive)
GI50 (SF-295): > 100 µM (inactive)
GI50 (NCI-H23): > 100 µM (inactive)
GI50 (EKVX): > 100 µM (inactive)
GI50 (NCI/ADR-RES): > 100 µM (inactive)
GI50 (HT-29): > 100 µM (inactive)
GI50 (MDA-MB-435): > 100 µM (inactive)
GI50 (SNB-75): > 100 µM (inactive)
GI50 (RXF 393): > 100 µM (inactive)
GI50 (SNB-19): > 100 µM (inactive)
GI50 (NCI-H226): > 100 µM (inactive)
GI50 (NCI-H460): > 100 µM (inactive)
GI50 (COLO 205): > 100 µM (inactive)
GI50 (OVCAR-4): > 100 µM (inactive)
GI50 (A498): > 100 µM (inactive)
GI50 (UO-31): > 100 µM (inactive)
GI50 (Hs-578T): 0.082 µM (active)
GI50 (ACHN): > 100 µM (inactive)
GI50 (OVCAR-5): > 100 µM (inactive)
GI50 (U-251): > 100 µM (inactive)
GI50 (786-0): > 100 µM (inactive)

Cc1ncc([N+](=O)[O-])n1CC(O)Cn1ccnc1[N+](=O)[O-] (stereo not given)
GI50 (SR): > 100 µM (inactive)
GI50 (HCT-116): > 100 µM (inactive)
GI50 (CCRF-CEM): > 100 µM (inactive)
GI50 (KM12): > 100 µM (inactive)
GI50 (PC-3): > 100 µM (inactive)
GI50 (SF-268): > 100 µM (inactive)
GI50 (SF-539): > 100 µM (inactive)
GI50 (MCF7): > 100 µM (inactive)
GI50 (UACC-257): > 100 µM (inactive)
GI50 (MOLT-4): > 100 µM (inactive)
GI50 (HOP-62): > 100 µM (inactive)
GI50 (SK-MEL-28): > 100 µM (inactive)
GI50 (OVCAR-8): > 100 µM (inactive)
GI50 (TK-10): > 100 µM (inactive)
GI50 (HCT-15): > 100 µM
GI50 (OVCAR-3): > 100 µM (inactive)
GI50 (SK-MEL-5): > 100 µM (inactive)
GI50 (Malme-3M): > 100 µM (inactive)
GI50 (A549): > 100 µM (inactive)
GI50 (HL-60): > 100 µM (inactive)
GI50 (K562): > 100 µM (inactive)
GI50 (NCI-H522): > 100 µM (inactive)
GI50 (SK-MEL-2): > 100 µM (inactive)
GI50 (RPMI-8226): > 100 µM (inactive)
GI50 (HCC 2998): > 100 µM (inactive)
GI50 (SW-620): > 100 µM (inactive)
GI50 (SN12C): > 100 µM (inactive)
GI50 (SF-295): > 100 µM (inactive)
GI50 (NCI-H23): > 100 µM (inactive)
GI50 (EKVX): > 100 µM (inactive)
GI50 (HT-29): > 100 µM (inactive)
GI50 (SNB-75): > 100 µM (inactive)
GI50 (NCI-H226): > 100 µM (inactive)
GI50 (NCI-H460): > 100 µM (inactive)
GI50 (A498): > 100 µM (inactive)
GI50 (Hs-578T): > 100 µM (inactive)
GI50 (ACHN): > 100 µM (inactive)
GI50 (OVCAR-5): > 100 µM (inactive)
GI50 (U-251): > 100 µM (inactive)
GI50 (786-0): > 100 µM (inactive)

O/N=C1\CC2(N3CCOCC3)CCC1(Cc1ccccc1)CC2
GI50 (T47D): 32 µM (inactive)
GI50 (SR): > 100 µM (inactive)
GI50 (HCT-116): 35.6 µM (inactive)
GI50 (CCRF-CEM): > 100 µM (inactive)
GI50 (KM12): > 100 µM (inactive)
GI50 (PC-3): > 100 µM (inactive)
GI50 (SF-268): 30.9 µM (inactive)
GI50 (UACC-62): > 10 µM (inactive)
GI50 (SF-539): 23.2 µM (inactive)
GI50 (MCF7): > 100 µM (inactive)
GI50 (MDA-N): > 100 µM (inactive)
GI50 (HOP-92): 28.6 µM (inactive)
GI50 (UACC-257): > 100 µM (inactive)
GI50 (MOLT-4): > 100 µM (inactive)
GI50 (M14): > 100 µM (inactive)
GI50 (HOP-62): 23 µM (inactive)
GI50 (SK-MEL-28): > 100 µM (inactive)
GI50 (IGROV-1): 43.6 µM (inactive)
GI50 (OVCAR-8): 23.4 µM (inactive)
GI50 (SK-OV-3): 30.5 µM (inactive)
GI50 (HCT-15): > 100 µM
GI50 (OVCAR-3): > 100 µM (inactive)
GI50 (SK-MEL-5): > 100 µM (inactive)
GI50 (Malme-3M): 66.4 µM (inactive)
GI50 (A549): > 100 µM (inactive)
GI50 (HL-60): > 100 µM (inactive)
GI50 (MDA-MB-231): 26.2 µM (inactive)
GI50 (K562): > 100 µM (inactive)
GI50 (NCI-H522): 43.4 µM (inactive)
GI50 (SK-MEL-2): 37.4 µM (inactive)
GI50 (DU-145): > 100 µM (inactive)
GI50 (LOX IMVI): 2.55 µM (inactive)
GI50 (HCC 2998): > 100 µM (inactive)
GI50 (SW-620): > 100 µM (inactive)
GI50 (SN12C): > 100 µM (inactive)
GI50 (SF-295): 22.9 µM (inactive)
GI50 (NCI-H23): 64.1 µM (inactive)
GI50 (EKVX): > 100 µM (inactive)
GI50 (NCI/ADR-RES): 61.1 µM (inactive)
GI50 (HT-29): > 100 µM (inactive)
GI50 (MDA-MB-435): > 100 µM (inactive)
GI50 (SNB-75): 13.5 µM (inactive)
GI50 (RXF 393): 21.1 µM (inactive)
GI50 (SNB-19): 24.1 µM (inactive)
GI50 (NCI-H226): 35 µM (inactive)
GI50 (NCI-H460): > 100 µM (inactive)
GI50 (COLO 205): > 100 µM (inactive)
GI50 (OVCAR-4): 32.5 µM (inactive)
GI50 (CAKI-1): 64.3 µM (inactive)
GI50 (A498): 32 µM (inactive)
GI50 (UO-31): > 100 µM (inactive)
GI50 (ACHN): 22.3 µM (inactive)
GI50 (OVCAR-5): > 100 µM (inactive)
GI50 (U-251): 19.4 µM (inactive)
GI50 (786-0): 19 µM (inactive)

CN1C2CC(C#N)C1C=CC2=O (stereo not given)
GI50 (MCF7): 33.3 µM (inactive) and 57.8 µM (inactive)
GI50 (SK-OV-3): 43.1 µM (inactive) and 24.8 µM (inactive)
GI50 (HL-60): 18.9 µM (inactive) and 34.1 µM (inactive)
GI50 (SK-MEL-2): 29 µM (inactive) and 33.7 µM (inactive)
GI50 (SNB-19): 87.1 µM (inactive)
